Experiment [1] addresses Protein kinase C gamma type (Homo sapiens) (UniProt P05129). Nature of the experiment: Inhibition of recombinant full-length human PKCgamma assessed as residual activity at 10 uM using histone H1 as substrate incubated for 40 mins in presence of [gamma33P]ATP by scintillation counting based radiometry assay relative to control.
The target of experiment [2] is Serine/threonine-protein kinase 24 (Homo sapiens) (UniProt Q9Y6E0). Nature of the experiment: Inhibition of recombinant human MST3 (1 to 304 residues) assessed as residual activity at 10 uM using ERMRPRKRQGSVR as substrate measured after 40 mins in presence of [gamma33P]ATP by scintillation counting based radiometry assay relative to control.
For experiment [3], the target named is Mitogen-activated protein kinase 9 (Homo sapiens) (UniProt P45984). Kind of experiment: Inhibition of human JNK2alpha2 assessed as residual activity at 10 uM using ATF2 as substrate after 40 mins by [gamma-33ATP] radiometric assay relative to control.
Experiment [4] deals with Receptor tyrosine-protein kinase erbB-2 (Homo sapiens), P04626 [G778D]. Kind of experiment: Inhibition of recombinant human ERBB2 G778D mutant (676 to end residues) assessed as residual activity at 10 uM using poly(Glu, Tyr) 4:1 as substrate at 40 mins in presence of [gamma-33ATP] by scintillation counting based radiometry assay relative to control.
Experiment [5] addresses Testis-specific serine/threonine-protein kinase 2 (Homo sapiens) (UniProt Q96PF2). Nature of the experiment: Inhibition of recombinant full-length human TSSK2 assessed as residual activity at 10 uM using KKKVSRSGLYRSPSMPENLNRPR as substrate incubated for 40 mins in presence of [gamma33P]ATP by scintillation counting based radiometry assay relative to control.
For experiment [6], the system named is Proto-oncogene tyrosine-protein kinase receptor Ret (Homo sapiens), P07949 [V804L]. Nature of the experiment: Inhibition of recombinant human Ret V804L mutant (658 to end residues) assessed as residual activity at 10 uM using KKKSPGEYVNIEFG as substrate incubated for 40 mins in presence of [gamma33P]ATP by scintillation counting based radiometry assay relative to control.

Experiment [7] concerns the target Insulin receptor (Homo sapiens) (UniProt P06213). Kind of experiment: Inhibition of human IR activated (1005 to 1310 residues) assessed as residual activity at 10 uM using KKSRGDYMTMQIG as substrate after 40 mins by [gamma-33ATP] radiometric assay relative to control.
The species entered for experiment [8] is Homo sapiens. Nature of the experiment: Inhibition of recombinant human full length PI3K p110/p85 assessed as residual activity at 10 uM using phosphatidylinositol-4, 5-bisphosphate as substrate measured after 40 mins by fluorescence assay relative to control.
Experiment [9] has as its target ALK tyrosine kinase receptor (Homo sapiens) (UniProt Q9UM73). Nature of the experiment: Inhibition of human ALK (1058 to end residues) assessed as residual activity at 10 uM using KKKSPGEYVNIEFG as substrate incubated for 40 mins in presence of [gamma-33ATP] by scintillation counting based radiometry assay relative to control.
Experiment [10] deals with Platelet-derived growth factor receptor alpha (Homo sapiens), P16234 [V561D]. Nature of the experiment: Inhibition of human PDGFRalpha V561D mutant (550 to end residues) assessed as residual activity at 10 uM using poly(Glu, Tyr) 4:1 as substrate measured after 40 mins in presence of [gamma33P]ATP by scintillation counting based radiometry assay relative to control.
Experiment [11] addresses Casein kinase I isoform gamma-2 (Homo sapiens) (UniProt P78368). Kind of experiment: Inhibition of recombinant human CK1gamma2 (18 to end residues) assessed as residual activity at 10 uM using KRRRALS(p)VASLPGL as substrate incubated for 40 mins in presence of [gamma-33ATP] by scintillation counting based radiometry assay relative to control.
Experiment [12] concerns the target Fibroblast growth factor receptor 4 (Homo sapiens) (UniProt P22455). Kind of experiment: Inhibition of recombinant human FGFR4 (442 to 755 residues) assessed as residual activity at 10 uM using poly(Glu, Tyr) 4:1 as substrate at 40 mins in presence of [gamma-33ATP] by scintillation counting based radiometry assay relative to control.
In experiment [13] the target is Tyrosine-protein kinase Lyn (Mus musculus) (UniProt P25911). Kind of experiment: Inhibition of recombinant full length mouse Lyn assessed as residual activity at 10 uM using poly(Glu, Tyr) 4:1 as substrate after 40 mins in presence of [gamma-33ATP] by scintillation counting based radiometry assay relative to control.
Experiment [14] has as its target Death-associated protein kinase 1 (Homo sapiens) (UniProt P53355). Nature of the experiment: Inhibition of recombinant human DAPK1 (1 to 296 residues) assessed as residual activity at 10 uM KKLNRTLSFAEPG as substrate incubated 40 mins in presence of [gamma-33ATP] by scintillation counting based radiometry assay relative to control.
Experiment [15] addresses Serine/threonine-protein kinase Chk1 (Homo sapiens) (UniProt O14757). Kind of experiment: Inhibition of recombinant full length human CHK1 assessed as residual activity at 10 uM using KKKVSRSGLYRSPSMPENLNRPR as substrate incubated for 40 mins in presence of [gamma-33ATP] by scintillation counting based radiometry assay relative to control.
Experiment [16] concerns the target Fibroblast growth factor receptor 3 (Homo sapiens) (UniProt P22607). Kind of experiment: Inhibition of recombinant human FGFR3 (447 to 761 residues) assessed as residual activity at 10 uM using poly(Glu, Tyr) 4:1 as substrate at 40 mins in presence of [gamma-33ATP] by scintillation counting based radiometry assay relative to control.
The target of experiment [17] is Ephrin type-B receptor 3 (Homo sapiens) (UniProt P54753). Kind of experiment: Inhibition of recombinant human EphB3 (599 to 920 residues) assessed as residual activity at 10 uM using poly(Glu, Tyr) 4:1 as substrate at 40 mins in presence of [gamma-33ATP] by scintillation counting based radiometry assay relative to control.
In experiment [18] the target is Ephrin type-A receptor 8 (Homo sapiens) (UniProt P29322). Nature of the experiment: Inhibition of recombinant human EphA8 (615 to 911 residues) assessed as residual activity at 10 uM using KTFCGTPEYLAPEVRREPRILSEEEQEMFRDFDYIADWC as substrate at 40 mins in presence of [gamma-33ATP] by scintillation counting based radiometry assay relative to control.
For experiment [19], the system named is Ribosomal protein S6 kinase alpha-1 (Rattus norvegicus), Q63531 [S637N,G697A]. Kind of experiment: Inhibition of recombinant full length rat Rsk1 S637N/G697A mutant assessed as residual activity at 10 uM using KKKNRTLSVA as substrate incubated for 40 mins in presence of [gamma33P]ATP by scintillation counting based radiometry assay relative to control.
Experiment [20] addresses Serine/threonine-protein kinase Nek3 (Homo sapiens) (UniProt P51956). Kind of experiment: Inhibition of recombinant full-length human NEK3 assessed as residual activity at 10 uM using myelin basic protein as substrate measured after 40 mins in presence of [gamma33P]ATP by scintillation counting based radiometry assay relative to control.
For experiment [21], the target named is Misshapen-like kinase 1 (Homo sapiens) (UniProt Q8N4C8). Kind of experiment: Inhibition of recombinant human MINK (1 to 320 residues) assessed as residual activity at 10 uM using myelin basic protein as substrate incubated for 40 mins in presence of [gamma-33ATP by scintillation counting based radiometry assay relative to control.

Chain of Fibroblast growth factor receptor 4 (Homo sapiens) (P22455 22-802 limits assumed): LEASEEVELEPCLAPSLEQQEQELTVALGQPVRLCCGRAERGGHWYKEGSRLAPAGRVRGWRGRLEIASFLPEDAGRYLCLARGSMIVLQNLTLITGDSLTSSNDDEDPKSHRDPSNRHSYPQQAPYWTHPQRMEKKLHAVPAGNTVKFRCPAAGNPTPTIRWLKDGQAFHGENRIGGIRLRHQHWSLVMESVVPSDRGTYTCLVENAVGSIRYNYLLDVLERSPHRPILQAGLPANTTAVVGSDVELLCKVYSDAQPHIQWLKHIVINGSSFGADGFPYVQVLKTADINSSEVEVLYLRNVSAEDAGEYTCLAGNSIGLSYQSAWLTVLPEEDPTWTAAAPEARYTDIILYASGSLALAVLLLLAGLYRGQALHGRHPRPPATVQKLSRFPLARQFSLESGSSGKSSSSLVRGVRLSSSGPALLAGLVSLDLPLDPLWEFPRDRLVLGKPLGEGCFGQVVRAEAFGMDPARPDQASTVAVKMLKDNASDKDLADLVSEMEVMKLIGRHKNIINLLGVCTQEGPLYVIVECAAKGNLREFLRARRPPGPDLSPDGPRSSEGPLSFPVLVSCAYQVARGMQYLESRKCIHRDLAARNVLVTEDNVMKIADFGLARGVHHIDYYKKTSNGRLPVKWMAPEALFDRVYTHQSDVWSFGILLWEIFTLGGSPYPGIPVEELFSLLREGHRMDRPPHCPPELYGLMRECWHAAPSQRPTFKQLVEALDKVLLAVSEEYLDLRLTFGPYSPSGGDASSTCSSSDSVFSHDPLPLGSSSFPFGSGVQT
Chain of Testis-specific serine/threonine-protein kinase 2 (Homo sapiens) (Q96PF2 whole entry): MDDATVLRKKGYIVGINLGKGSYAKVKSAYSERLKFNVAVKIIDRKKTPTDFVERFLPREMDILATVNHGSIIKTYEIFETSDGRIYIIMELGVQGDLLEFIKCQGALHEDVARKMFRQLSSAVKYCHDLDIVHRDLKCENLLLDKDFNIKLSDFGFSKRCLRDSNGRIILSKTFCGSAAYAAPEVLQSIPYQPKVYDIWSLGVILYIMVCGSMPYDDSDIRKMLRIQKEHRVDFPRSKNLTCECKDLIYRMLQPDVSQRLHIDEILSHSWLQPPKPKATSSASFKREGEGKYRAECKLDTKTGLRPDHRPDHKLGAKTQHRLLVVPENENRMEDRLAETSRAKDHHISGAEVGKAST
Chain of Fibroblast growth factor receptor 3 (Homo sapiens) (P22607 23-806 limits assumed): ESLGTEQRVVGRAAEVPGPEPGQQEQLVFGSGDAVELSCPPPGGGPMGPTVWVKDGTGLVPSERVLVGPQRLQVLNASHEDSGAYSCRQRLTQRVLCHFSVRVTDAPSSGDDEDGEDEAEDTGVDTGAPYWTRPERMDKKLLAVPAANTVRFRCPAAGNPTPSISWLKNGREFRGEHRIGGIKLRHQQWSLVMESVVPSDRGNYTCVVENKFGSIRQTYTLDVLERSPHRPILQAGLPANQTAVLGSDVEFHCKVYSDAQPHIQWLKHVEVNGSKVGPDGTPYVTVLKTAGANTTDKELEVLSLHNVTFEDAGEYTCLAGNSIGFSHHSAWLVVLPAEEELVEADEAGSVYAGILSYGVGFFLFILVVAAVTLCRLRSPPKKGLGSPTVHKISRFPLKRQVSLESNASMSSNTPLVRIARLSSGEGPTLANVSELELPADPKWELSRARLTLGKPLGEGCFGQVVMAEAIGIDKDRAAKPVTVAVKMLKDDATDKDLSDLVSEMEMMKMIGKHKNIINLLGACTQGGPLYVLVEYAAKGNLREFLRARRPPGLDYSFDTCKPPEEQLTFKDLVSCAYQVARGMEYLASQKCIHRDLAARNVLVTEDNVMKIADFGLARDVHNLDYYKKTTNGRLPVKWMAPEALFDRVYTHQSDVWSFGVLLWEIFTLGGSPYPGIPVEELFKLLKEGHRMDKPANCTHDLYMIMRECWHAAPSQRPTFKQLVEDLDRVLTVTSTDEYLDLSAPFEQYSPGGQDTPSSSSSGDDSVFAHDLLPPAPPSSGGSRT
Chain of Serine/threonine-protein kinase Chk1 (Homo sapiens) (O14757 whole entry, the tested form may be a part): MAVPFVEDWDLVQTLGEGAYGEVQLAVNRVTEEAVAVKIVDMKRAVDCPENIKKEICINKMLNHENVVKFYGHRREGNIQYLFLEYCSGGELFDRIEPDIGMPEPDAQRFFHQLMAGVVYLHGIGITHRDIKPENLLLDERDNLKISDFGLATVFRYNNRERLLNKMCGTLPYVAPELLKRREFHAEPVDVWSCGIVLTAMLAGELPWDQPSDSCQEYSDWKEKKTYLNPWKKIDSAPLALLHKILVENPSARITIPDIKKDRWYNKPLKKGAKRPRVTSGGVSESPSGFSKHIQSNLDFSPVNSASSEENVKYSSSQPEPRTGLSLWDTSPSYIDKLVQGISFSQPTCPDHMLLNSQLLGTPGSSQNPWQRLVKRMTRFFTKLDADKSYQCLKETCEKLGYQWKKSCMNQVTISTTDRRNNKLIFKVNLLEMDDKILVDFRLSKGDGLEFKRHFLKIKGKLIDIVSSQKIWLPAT
Chain of Ribosomal protein S6 kinase alpha-1 (Rattus norvegicus), Q63531 [S637N,G697A] (Q63531 whole entry S637N/G697A): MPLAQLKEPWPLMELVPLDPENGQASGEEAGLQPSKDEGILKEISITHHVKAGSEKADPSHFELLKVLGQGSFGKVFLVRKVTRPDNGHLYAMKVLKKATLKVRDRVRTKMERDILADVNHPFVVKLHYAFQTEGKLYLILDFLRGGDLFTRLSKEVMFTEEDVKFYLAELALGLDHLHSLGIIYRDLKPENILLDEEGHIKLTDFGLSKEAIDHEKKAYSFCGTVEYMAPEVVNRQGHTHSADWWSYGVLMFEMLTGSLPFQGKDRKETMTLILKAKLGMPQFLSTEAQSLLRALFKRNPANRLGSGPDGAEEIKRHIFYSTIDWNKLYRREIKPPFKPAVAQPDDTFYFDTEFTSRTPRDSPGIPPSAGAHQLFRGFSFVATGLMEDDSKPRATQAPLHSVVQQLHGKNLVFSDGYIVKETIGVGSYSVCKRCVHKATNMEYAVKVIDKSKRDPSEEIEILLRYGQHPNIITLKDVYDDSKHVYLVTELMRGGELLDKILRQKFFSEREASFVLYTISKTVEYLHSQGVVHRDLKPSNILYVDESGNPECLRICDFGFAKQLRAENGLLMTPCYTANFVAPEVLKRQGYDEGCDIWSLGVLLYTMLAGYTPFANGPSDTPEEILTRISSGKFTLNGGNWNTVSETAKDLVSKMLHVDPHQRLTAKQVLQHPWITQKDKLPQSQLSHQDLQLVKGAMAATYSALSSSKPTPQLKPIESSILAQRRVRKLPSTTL
Chain of Proto-oncogene tyrosine-protein kinase receptor Ret (Homo sapiens), P07949 [V804L] (P07949 whole entry V804L): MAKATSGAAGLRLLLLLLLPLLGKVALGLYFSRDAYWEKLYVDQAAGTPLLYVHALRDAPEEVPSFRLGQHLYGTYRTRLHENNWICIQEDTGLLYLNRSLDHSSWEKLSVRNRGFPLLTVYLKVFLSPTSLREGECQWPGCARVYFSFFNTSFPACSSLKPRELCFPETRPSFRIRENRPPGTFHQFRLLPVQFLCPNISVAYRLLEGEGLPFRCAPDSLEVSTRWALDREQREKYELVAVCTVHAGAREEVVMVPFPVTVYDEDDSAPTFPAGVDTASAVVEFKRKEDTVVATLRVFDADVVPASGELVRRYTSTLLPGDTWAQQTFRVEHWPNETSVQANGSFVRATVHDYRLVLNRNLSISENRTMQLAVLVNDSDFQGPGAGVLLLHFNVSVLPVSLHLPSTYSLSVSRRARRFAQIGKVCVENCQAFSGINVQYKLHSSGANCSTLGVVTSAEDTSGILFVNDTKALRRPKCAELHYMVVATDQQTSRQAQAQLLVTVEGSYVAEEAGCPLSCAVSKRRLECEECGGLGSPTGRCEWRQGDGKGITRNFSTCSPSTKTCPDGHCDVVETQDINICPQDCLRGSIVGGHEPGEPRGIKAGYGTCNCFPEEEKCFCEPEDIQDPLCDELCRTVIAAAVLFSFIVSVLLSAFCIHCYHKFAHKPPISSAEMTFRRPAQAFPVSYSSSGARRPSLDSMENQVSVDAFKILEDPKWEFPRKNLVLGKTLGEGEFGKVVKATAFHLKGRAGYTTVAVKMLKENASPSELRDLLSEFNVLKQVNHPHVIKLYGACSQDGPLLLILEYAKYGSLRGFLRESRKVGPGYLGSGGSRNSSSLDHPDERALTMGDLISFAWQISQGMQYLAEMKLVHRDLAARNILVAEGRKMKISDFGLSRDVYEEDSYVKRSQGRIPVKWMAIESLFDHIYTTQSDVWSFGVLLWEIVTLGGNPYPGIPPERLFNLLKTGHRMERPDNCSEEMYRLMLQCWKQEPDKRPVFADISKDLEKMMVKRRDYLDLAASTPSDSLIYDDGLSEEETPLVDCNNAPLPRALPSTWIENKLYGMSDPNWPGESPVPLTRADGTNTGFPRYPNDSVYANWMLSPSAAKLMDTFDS
Chain of Mitogen-activated protein kinase 9 (Homo sapiens) (P45984 whole entry, looked up): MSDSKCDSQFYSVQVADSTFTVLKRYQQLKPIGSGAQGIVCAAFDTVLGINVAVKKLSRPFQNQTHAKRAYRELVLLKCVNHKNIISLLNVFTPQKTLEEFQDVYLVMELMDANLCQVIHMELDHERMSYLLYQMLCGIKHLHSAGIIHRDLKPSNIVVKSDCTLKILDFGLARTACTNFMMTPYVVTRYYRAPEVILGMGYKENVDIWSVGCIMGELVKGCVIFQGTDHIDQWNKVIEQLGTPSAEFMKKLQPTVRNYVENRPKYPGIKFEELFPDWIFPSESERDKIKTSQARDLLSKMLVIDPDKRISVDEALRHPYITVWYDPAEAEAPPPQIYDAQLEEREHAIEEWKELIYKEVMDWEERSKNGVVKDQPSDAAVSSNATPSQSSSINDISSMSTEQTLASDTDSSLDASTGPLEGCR

On to `C[C@@H](c1ccccc1)n1nnc2cnc3ccc(-c4cnc5[nH]ccc5c4)cc3c21`, for which the Activity in [1] was determined as 83%; in [2] it was 90%; in experiment [3], 95%; in experiment [4], 120%; in [5], 63%; in experiment [6], 90%. The Activity in [7] is 62%; in [8], 3 to 9%; in experiment [9], 28%; in experiment [10], 2%; in experiment [11], 73%; in experiment [12] it was 68%. The Activity in experiment [13] worked out at 3%; in experiment [14], 84%; in experiment [15] it was 140%; in experiment [16], 50%; in [17], 123%; in [18], 73%. In addition, the figures for the Activity in experiment [19], in experiment [20] and in experiment [21] were 71%, 73% and 81%, respectively.
